{
  "source": "patent US8785430B2",
  "about": "“Compound that can inhibit UBC13-UEV interactions, pharmaceutical compositions and therapeutic uses” (Consejo Superior de Investigaciones Cientificas, priority 2006, dated 2014)",
  "molecular_target": "T1, binding of UEV1 to GST-UBC13 (Homo sapiens, UniProt P61088)",
  "T1 construct": "made in house; host or cells: Escherichia coli BL21",
  "T1 sequence (P61088 1-152)": "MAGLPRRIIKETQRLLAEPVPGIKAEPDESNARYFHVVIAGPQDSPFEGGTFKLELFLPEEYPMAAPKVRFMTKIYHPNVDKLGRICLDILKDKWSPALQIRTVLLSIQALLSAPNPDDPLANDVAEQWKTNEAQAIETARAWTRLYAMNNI",
  "test": "Purified recombinant protein interaction assay, UEV1 binding to GST-UBC13 on glutathione-Sepharose",
  "details": "for UEV1 in the fraction which is eluted and not bound to GST-UBC13: 100 μM; for inhibition of the interaction of UEV1 with UBC13 at lower concentrations: much lower concentrations, of up to 10 nM",
  "method": "To determine the activity of these compounds in acellular assays, protein-protein interaction experiments were performed with recombinant proteins produced in Escherichia coli. To express UBC13 and UEV1, bacterial cells of the E. coli strain BL21 were transformed with plasmids pGEX-4T1-UBC13 or pGEX-4T3-UEV1, transformed colonies being selected by means of growth in plates with ampicillin (100 μg/mL). Individual colonies were transferred to 3 L of LB medium without antibiotics, being grown with stirring at 37° C. until the culture reached the exponential phase (OD600˜0.6), at which time the expression of the recombinant proteins was induced by means of adding isopropyl […] (IPTG, Sigma I-6758) at a concentration of 1 mM for 5 hours to the culture. The cultures were transferred to tubes, centrifuged and the cell pellets were resuspended in twice their volume of phosphate buffered saline (PBS) at pH 7.4 and were broken in a Cell Disruptor instrument (Constant Systems). The cell lysates were filtered through cellulose acetate filters with […] (Millipore SLHA033SS) and were applied to GSTrap FF columns (Amersham Biosciences 17-5131-01). In the case of UEV1, the protein bound specifically to the column was subjected to enzymatic digestion on the same column with 50 units of thrombin (Amersham Biosciences 27-0846-01) at 25° C. overnight. A HiTrapBenzamidine FF column (Amersham Biosciences 27-0846-01) was coupled to the previous column, such that the GST unit was trapped in the first column, and the thrombin in the second column. Then the UEV1 protein was eluted, without the GST portion, followed by a subsequent step of purification by means of gel filtration chromatography with a Superdex 75 column. The GST-UBC13 recombinant protein was expressed as indicated above, being purified by means of affinity chromatography in GSTrap FF columns, followed by filtration chromatography in Superdex 75. The fractions corresponding to the purified proteins were concentrated by means of centrifugation in Centricon YM-10 columns (Millipore 4205), being stored at 4° C. until their use.\nTo determine the effects of compounds Ia and Ib on the interaction of UBC13 with UEV1, 2 μL of the GST-UBC13 chimeric recombinant protein, at a concentration of […] in a 50 mM Hepes buffer, 100 mM NaCl, 1 mM EDTA, 0.5 mM DTT at pH 7.6 were pre-incubated for 30 minutes at room temperature with the compounds Varubin, Ib or the cyclic control compound VIII-N6-2-1C at final concentrations of 10 nM, 100 nM, 1 μM, 10 μM or 100 μM. […]",
  "data": [
    {"smiles": "NC(=O)CN(CCc1ccccn1)C(=O)CC1C(=O)N(CCc2ccc(F)cc2)CC(=O)N1CCc1ccc(F)cc1", "note": "(stereo not shown) [Ib, 1,4-bis[2′-(4″-fluorophenyl)ethyl]-2-[N-aminocarbonylmethyl-N-(2′-(2″-pyridyl)ethyl)-carbonylmethyl]piperazine-3,6-dione]", "values": [
      {"measurement": "UEV1 in the fraction which is eluted and not bound to GST-UBC13", "value": "≤ 40", "unit": "%"},
      {"measurement": "inhibition of the interaction of UEV1 with UBC13 at lower concentrations", "value": "efficient inhibition"}
    ]},
    {"smiles": "NC(=O)CN(CCc1ccccn1)C(=O)C1CC(=O)N(CCc2ccc(F)cc2)CC(=O)N1CCc1ccc(F)cc1", "note": "(stereo not shown) [Ia, N-aminocarbamoylmethyl-N-(2′-(2″pyridyl)ethyl)-1,4-bis[2′-(4″-fluorophenyl)ethyl]-3,7-dioxo-[1,4]diazepane-5-carboxamide]", "values": [
      {"measurement": "UEV1 in the fraction which is eluted and not bound to GST-UBC13", "value": "up to 60%"},
      {"measurement": "inhibition of the interaction of UEV1 with UBC13 at lower concentrations", "value": "efficient inhibition"}
    ]}
  ]
}
